# According to publication PMC9007951, “Systematically evaluating DOTATATE and FDG as PET immuno-imaging tracers of cardiovascular inflammation” (Scientific Reports, 2022):
# Read-outs that look alike come from different tables or passages of the source.
# Experiment: Organ biodistribution of [^68Ga]Ga-DOTATATE by ex vivo gamma counting
# Format: in vivo, New Zealand White rabbits
# Details: male, New Zealand White, rabbit, 190 MBq, total radioactivity, 200 min after tracer injection, median (IQR)
# Procedure: Adopting a translational approach, the rabbit studies were performed with the [^68Ga]Ga-labeled tracer, which is already being used in the clinic. [^68Ga]Ga-DOTATATE was purchased from Advanced Accelerator Applications (AAA, Millburn, NJ, USA). To determine its pharmacokinetics, three atherosclerotic rabbits and two healthy controls were injected with approximately 190 MBq of [^68Ga]Ga-DOTATATE. Venous blood was sampled at 1, 5, 10, 15, 20, 30, 60, 120, 180, 240 and 300 min after injection through the ear vein. Samples were weighed and gamma counted. Blood half-life data were fitted using a two-phase decay non-linear regression using GraphPad Prism v8.4.3 (Supplementary Table S1). To investigate the tracer blood distribution, blood samples were centrifuged at 2000 g for 15 min at 4 °C to determine the radioactivity concentration in the plasma and cellular fractions. To analyze [^68Ga]Ga-DOTATATE biodistribution, all rabbits were euthanized after the last imaging time-point using an injection of pentobarbital 100 mg/kg and exsanguination of the portal vein. Rabbits were extensively perfused with 1000 mL of saline. Following, tissues (blood, heart, aorta, liver, kidney, skeletal muscle, small and large intestine, fat, stomach, pancreas and bladder) were harvested, weighed and gamma counted.
structure (smiles),measurement,setting,value
"C[C@@H](O)[C@H](NC(=O)[C@@H]1CSSC[C@H](NC(=O)[C@@H](Cc2ccccc2)NC(=O)CN2CCN(CC(=O)O)CCN(CC(=O)O)CCN(CC(=O)O)CC2)C(=O)N[C@@H](Cc2ccc(O)cc2)C(=O)N[C@H](Cc2c[nH]c3ccccc23)C(=O)N[C@@H](CCCCN)C(=O)N[C@@H]([C@@H](C)O)C(=O)N1)C(=O)O [[^68Ga]Ga-DOTATATE, metal not drawn]",tissue uptake at 200 min,"abdominal aorta, iv, male athero4mo rabbits, N = 9, read-out: Tissue radioactivity, abdominal aorta",0.017 %ID/g
same,tissue uptake at 200 min,"abdominal aorta, iv, male control rabbits, N = 6, read-out: Tissue radioactivity, abdominal aorta",0.006 %ID/g
same,tissue uptake at 200 min,"adrenal gland, iv, male athero4mo rabbits, N = 9, read-out: Tissue radioactivity, adrenal gland",0.012 %ID/g
same,tissue uptake at 200 min,"adrenal gland, iv, male control rabbits, N = 6, read-out: Tissue radioactivity, adrenal gland",0.003 %ID/g
same,tissue uptake at 200 min,"bladder, intravenous, male athero4mo rabbits, N = 9, read-out: Tissue radioactivity, bladder",0.075 %ID/g
same,tissue uptake at 200 min,"bladder, intravenous, male control rabbits, N = 6, read-out: Tissue radioactivity, bladder",0.053 %ID/g
same,tissue uptake at 200 min,"bone marrow, intravenous, male athero4mo rabbits, N = 9, read-out: Tissue radioactivity, bone marrow",0.006 %ID/g
same,tissue uptake at 200 min,"bone marrow, intravenous, male control rabbits, N = 6, read-out: Tissue radioactivity, bone marrow",0.003 %ID/g
same,tissue uptake at 200 min,"fat, intravenous, male athero4mo rabbits, N = 9, read-out: Tissue radioactivity, fat",0.002 %ID/g
same,tissue uptake at 200 min,"heart, iv, male athero4mo rabbits, N = 9, read-out: Tissue radioactivity, heart",0.006 %ID/g
same,tissue uptake at 200 min,"heart, iv, male control rabbits, N = 6, read-out: Tissue radioactivity, heart",0.003 %ID/g
same,tissue uptake at 200 min,"kidneys, iv, male athero4mo rabbits, N = 9, read-out: Tissue radioactivity, kidneys",0.157 %ID/g
same,tissue uptake at 200 min,"kidneys, iv, male control rabbits, N = 6, read-out: Tissue radioactivity, kidneys",0.128 %ID/g
same,tissue uptake at 200 min,"large intestine, iv, male athero4mo rabbits, N = 9, read-out: Tissue radioactivity, large intestine",0.01 %ID/g
same,tissue uptake at 200 min,"large intestine, iv, male control rabbits, N = 6, read-out: Tissue radioactivity, large intestine",0.005 %ID/g
same,tissue uptake at 200 min,"liver, intravenous, male athero4mo rabbits, N = 9, read-out: Tissue radioactivity, liver",0.006 %ID/g
same,tissue uptake at 200 min,"lungs, iv, male athero4mo rabbits, N = 9, read-out: Tissue radioactivity, lungs",0.015 %ID/g
same,tissue uptake at 200 min,"lungs, iv, male control rabbits, N = 6, read-out: Tissue radioactivity, lungs",0.005 %ID/g
same,tissue uptake at 200 min,"lymph node, iv, male athero4mo rabbits, N = 9, read-out: Tissue radioactivity, lymph node",0.013 %ID/g
same,tissue uptake at 200 min,"lymph node, iv, male control rabbits, N = 6, read-out: Tissue radioactivity, lymph node",0.005 %ID/g
same,tissue uptake at 200 min,"muscle, iv, male athero4mo rabbits, N = 9, read-out: Tissue radioactivity, muscle",0.003 %ID/g
same,tissue uptake at 200 min,"muscle, iv, male control rabbits, N = 6, read-out: Tissue radioactivity, muscle",0.001 %ID/g
same,tissue uptake at 200 min,"pancreas, intravenous, male control rabbits, N = 6, read-out: Tissue radioactivity, pancreas",0.005 %ID/g
same,tissue uptake at 200 min,"small intestine, iv, male athero4mo rabbits, N = 9, read-out: Tissue radioactivity, small intestine",0.021 %ID/g
same,tissue uptake at 200 min,"small intestine, iv, male control rabbits, N = 6, read-out: Tissue radioactivity, small intestine",0.025 %ID/g
same,tissue uptake at 200 min,"spleen, intravenous, male athero4mo rabbits, N = 9, read-out: Tissue radioactivity, spleen",0.012 %ID/g
same,tissue uptake at 200 min,"spleen, intravenous, male control rabbits, N = 6, read-out: Tissue radioactivity, spleen",0.015 %ID/g
same,tissue uptake at 200 min,"stomach, intravenous, male athero4mo rabbits, N = 9, read-out: Tissue radioactivity, stomach",0.053 %ID/g
same,tissue uptake at 200 min,"thoracic aorta, iv, male athero4mo rabbits, N = 9, read-out: Tissue radioactivity, thoracic aorta",0.015 %ID/g
same,tissue uptake at 200 min,"thoracic aorta, iv, male control rabbits, N = 6, read-out: Tissue radioactivity, thoracic aorta",0.004 %ID/g
